Assay results taken from patent US8633319B2, “7-(1H-pyrazol-4-yl)-1,6-naphthyridine compounds as Syk inhibitors” (Glaxo Group Limited, priority 2010, dated 2014).
Where “and” joins values, the source holds several entries; their conditions need not be identical. Equal entries are not always repeated. Where two headings read alike, the source gives them in different places.

Key:
Whole blood B cells = assay: CD69 Whole Blood Assay; type: cell-based; settings: Homo sapiens, B-cell, anti-IgM stimulated
Method: Whole blood B cells are stimulated ex-vivo using anti-IgM. […] The subsequent autophosphorylation of Syk leads to initiation of a signalling cascade resulting in B cell activation as indicated by expression of the activation marker CD69 on the cell surface. CD20/CD69+ve whole blood B cells are detected by flow cytometry.
100 μl heparinised human blood was added to a 5 ml polypropylene tube containing 1 μl appropriately diluted compound solution and incubated for 25 min at 37° C. with 5% CO2. B cells were stimulated with 10 μl Fab′2 fragments of goat anti-human IgM (43 μg/ml final concentration) for a further 3.5 h under the conditions previously described. The red blood cells were lysed and all other cells fixed by the addition of 2 ml Lyse/Fix buffer for 10 min at room temperature.
The cells were stained using a cocktail of mouse anti-human CD20 FITC and mouse anti-human CD69 PE conjugated antibodies. CD20/CD69+ve B cells present in the sample were detected by flow cytometry.
Compound was prepared as a 10 mM stock in DMSO, further diluted down in DMSO to 1 mM and a dilution series prepared in DMSO using 7 successive 3-fold dilutions to give the final concentration range to be tested of 1×10^−5 to 4.57×10^−9M. Compound dilutions were prepared using the Biomek 2000 automated robotic pipetting system.

[1] = test system: Salmonella typhimurium strains and Escherichia coli; assay: Bacterial Mutation Screening Assay (Ames Test); settings: as the free base; presence and absence of S9-mix
Text: The bacterial mutation assay (Ames Test) is a short-term reverse mutation assay specifically designed to detect a wide range of chemical substances that can produce genetic damage that leads to gene mutations (base pair substitutions and frameshift mutations).
The test employs several histidine dependent Salmonella typhimurium strains and several tryptophan dependent strains of Escherichia coli each carrying different mutations in various genes in the histidine or tryptophan operon respectively. These mutations act as hot spots for mutagens that cause DNA damage via different mechanisms.
Briefly, bacteria are cultured for 10 h prior to the test. Top agar is supplemented with trace amounts of histidine, biotin, and tryptophan and aliquoted, before adding the required test article, vehicle or positive control followed by the appropriate bacterial suspension, and either an exogenous mammalian oxidative metabolism system (S9-mix) or buffer solution. The final mixture is poured over minimal agar plates which are then inverted and incubated before scoring for revertant colonies.
Bacterial Strains routinely used are Salmonella typhimurium strains TA98, TA100 TA1535 and TA1537 and Escherichia coli WP2 uvrA (pKM101).
Assays are performed in the presence and absence of an exogenous mammalian oxidative metabolising system (S9-mix), to mimic mammalian metabolism.
The highest concentration tested is one that allows maximum exposure up to 5000 μg/plate for freely soluble compounds, or the limit of solubility or toxicity (whichever is the lower). If compound solubility is a limiting factor, the maximum concentration chosen will be the lowest concentration at which compound precipitate is observed by eye on treatment plates at the end of the incubation period.
A single mutation assay (using the plate incorporation methodology) is conducted in the presence and absence of S9-mix (consisting of 4 replicate plates for vehicle controls and 2 replicate plates for the positive controls and test article).
Plates are usually scored electronically for bacterial colony formation following inspection of the plates for signs of toxicity (i.e. reduced growth (diminution) of background lawn, the presence of pin-dot/pseudorevertant colonies and/or a reduction in colony numbers). Plates will also be evaluated (by eye) for compound precipitation. […]
The number of colonies on each plate is recorded and mean values calculated for each concentration of test article used. Mean values are also be expressed as a ratio of the mean concurrent vehicle control value (i.e. fold increase). […]

SYK lysate = target: T1, SYK lysate (Homo sapiens, UniProt P43405); assay: Basic Syk Enzyme Activity; type: biochemical; settings: read-out: average pIC50 (converted)
T1 construct: Stimulation of Ramos Cells with Anti-IgM Ab to Produce Syk & Preparation of Lysates; endogenous in cells; host or cells: Ramos B cells (human Burkitt's lymphoma, clone 296.4C10, ATCC), stimulated with anti-IgM and lysed in 1% Triton X-100
Method: 3 μl of SYK lysate diluted 16-fold in assay buffer (20 mM TRIS pH 7.4, 0.01% BSA, 0.1% Pluronic F-68) was added to wells containing 0.1 μl of various concentrations of compound or DMSO vehicle (1.7% final) in a Greiner low volume 384 well black plate. Following 15 min pre-incubation at room temperature, the reaction was initiated by the addition of 3 μl of substrate reagent containing Y7 Sox peptide, (Invitrogen Cat. # KNZ3071, 5 μM final), ATP (35 μM final) and MgCl2 (10 mM final) in assay buffer. The reaction was incubated at room temperature before measuring fluorescence intensity (λex 360/λem 485) on an Envision plate reader (Perkin Elmer Life Sciences, Waltham, Mass., USA) at 15 min and 55 min post-substrate addition.
Ramos B Cells (human B cells of Burkitt's lymphoma, clone 296.4C10, ATCC) were cultured in suspension in growth medium (RPMI-1640, Sigma; supplemented with 2 mM L-glutamine, Gibco; 10 mM Hepes, Sigma; 1 mM sodium pyruvate, Sigma; 10% v/v heat-inactivated FCS, Gibco). Cells were grown in Corning Cellstacks (6360 cm^2) in 1 liter volume and viability and cell density were monitored daily. Cells were maintained at <1.5×10e6/ml and >92% viability.
Cells were stimulated at 20×10^6 cells/ml using 15 ug/ml (final concentration) anti-IgM antibody. Following harvest (as described above), a total of 4×10^9 cells were resuspended in 180 ml pre-warmed (37° C.) DPBS in a Corning 500 ml centrifuge bottle. 20 ml anti-IgM antibody at 150 ug/ml were added to each 500 ml centrifuge bottle (working stock made up in DPBS pre-warmed to 37° C.). Cells were incubated for exactly 5 min at 37° C. following the addition of anti IgM antibody. Following 5 min stimulation, 300 ml ice-cold DPBS were added to each bottle to stop the stimulation (temperature drops to ˜12° C.) then cells were centrifuged at 2000 rpm (Sorvall Legend RT+ centrifuge—pre-chilled to 4° C.). Cells were washed by resuspension in ice-cold DPBS and centrifugation as above. The cell pellet was then lysed in ice-cold lysis buffer containing 1% triton-x-100 at a ratio of 150 ul/1×10^7 cells (i.e. 48 ml lysis buffer). Following the addition of lysis buffer, the cells were pipetted up & down & kept on ice for 15 min. The clarified lysate was then obtained by centrifugation (Sorvall Evolution RC (SLA-1500 rotor, ˜20,000 g (˜14,500 rpm), 45 min, 4° C.).
Lysate was aliquoted, snap-frozen on dry-ice & stored at −80° C. prior to assay.
Lysis Buffer: 50 mM TRIS pH7.5+150 mM NaCl+1% Triton-X-100+2 mM EGTA+1:100 dilution inhibitor cocktails (phosphatase inhibitor cocktail set II, calbiochem cat no. 524625 & protease inhibitor cocktail set V, calbiochem cat no. 539137)

[2] = as the free base, read-out: average IC50
[3] = hydrochloric acid salts, read-out: average IC50
[4] = hydrochloric acid salts, read-out: average pIC50 (converted)

Row | SMILES | IC50 (Whole blood B cells; [2]) | IC50 (Whole blood B cells; [3]) | IC50 (Whole blood B cells; [4]) | Ames test result [1] | IC50 (SYK lysate; as the free base) | IC50 (SYK lysate; hydrochloric acid salts)
1 | CCn1cc(-c2cc3ncccc3c(OC[C@]3(F)CCCNC3)n2)cn1 [Example 4, 7-(1-Ethyl-1H-pyrazol-4-yl)-5-({[(3S)-3-fluoro-3-piperidinyl]methyl}oxy)-1,6-naphthyridine] | < 1 µM | < 1 µM | ≤ 1 µM | negative | ≤ 0.1 µM and 0.00794 µM | ≤ 0.316 µM
2 | CC(C)(C)n1cc(-c2cc3ncccc3c(NC[C@]3(F)CCCNC3)n2)cn1 [Example 2, 7-[1-(1,1-Dimethylethyl)-1H-pyrazol-4-yl]-N-{[(3S)-3-fluoro-3-piperidinyl]methyl}-1,6-naphthyridin-5-amine] | < 1 µM | < 1 µM | ≤ 1 µM | negative | ≤ 0.1 µM and 0.02 µM | ≤ 0.316 µM
3 | COCn1cc(-c2cc3ncccc3c(NC[C@]3(F)CCCNC3)n2)cn1 [Example 3, N-{[(3S)-3-Fluoro-3-piperidinyl]methyl}-7-{1-[(methyloxy)methyl]-1H-pyrazol-4-yl}-1,6-naphthyridin-5-amine] | < 1 µM | < 1 µM | ≤ 1 µM | negative | ≤ 0.1 µM and 0.0631 µM | ≤ 0.316 µM
4 | CCn1cc(-c2cc3ncccc3c(NC[C@]3(F)CCCNC3)n2)cn1 [Example 1, 7-(1-Ethyl-1H-pyrazol-4-yl)-N-{[(3S)-3-fluoro-3-piperidinyl]methyl}-1,6-naphthyridin-5-amine] | < 1 µM | < 1 µM | ≤ 1 µM | negative | ≤ 0.1 µM and 0.0251 µM | ≤ 0.316 µM
